# Assay results published in patent US12109266B2, “Modulating gabarap to modulate immunogenic cell death” (Dana-Farber Cancer Institute, Inc., priority 2020, dated 2024).
# Entries after “also recorded” stand apart in the source; their conditions may differ.
# How the values were obtained:
# 5TGM1 MM cells = assay: Cell surface exposure of CALR (flow cytometry); type: cell-based, murine; settings: 16 h
# Description: (§1) Multiple myeloma (MM) cells were seeded in 12-well plates (2×10^5 per well), treated with BTZ for 16 h at indicated concentrations, and then stained with Alexa Fluor647® anti-calreticulin antibody (ab196159, Abcam) and 7-AAD. Analysis of fluorescence intensity on 7-AAD negative cells was assessed using BD LRSFortessa™ X-20 flow cytometer.
# as §1, with “MM” for “Multiple myeloma (MM)”, “cells” for “cells was assessed”, “LRSFortessa” for “LRSFortessa™”
# [1] = system: UPR transducer PERK pathway; assay: Western blot of UPR/PERK pathway; type: cell-based; settings: AMO1 and 5TGM1 cells
# Description: Cell lysis was performed in RIPA buffer (Boston Bio Products) supplemented with Halt™ protease and phosphatase inhibitor cocktail (Thermo Fisher Scientific). Immunoblot analysis was performed to evaluate expression levels of total protein and phospho-specific isoforms. SDS-PAGE was performed on NuPage™ Bis-Tris gels (ThermoFisher Scientific) using MOPS or MES running buffer. Gels were dry transferred onto 0.45 μm nitrocellulose membranes using the iBlot® Dry Blotting System (ThermoFisher Scientific). The following antibodies (Abs) were used and purchased from Cell Signaling Technology: CRT (Cat. #12238) and GABARAP (Cat. #13733). GAPDH (Cat. #2118) was used as loading controls.
# Cell lysis was performed in RIPA buffer (Boston Bio Products) supplemented with Halt protease and phosphatase inhibitor cocktail (ThermoFisher Scientific). SDS-PAGE was performed on NuPage Bis-Tris gels (ThermoFisher Scientific) using MOPS or MES running buffer. Gels were dry transferred onto 0.45 μm nitrocellulose membranes using the iBlot® Dry Blotting System (ThermoFisher Scientific). The following Abs were purchased from Cell Signaling Technology: EIF2A (#5324), p-EIF2A (#3398), ATF4 (#11815), CHOP (2895), CALR (#12238), cGAS (#15102), TBK1 (#3504), pTBK1 (#5483), pIRF3 (#29047), STING (#13647). GAPDH (#2118) and B-ACTIN (#4970) were used as loading controls.
# 5TGM1 tumors = assay: IHC CD3 staining of tumors; type: in vivo, mouse; settings: tumors retrieved after one administration of the drugs
# Description: NOD/SCID and C57BL/KaLwRijHsd mice were subcutaneously (sc) injected with 1×10^6 5TGM1 either WT or Calr^KO cells in PBS. When tumor became measurable, mice were randomized to receive either PBS or BTZ administered intra peritoneally (i.p.) 0.5 mg/kg twice/week for 2 weeks. Tumor sizes were measured as previously described (46), and mice were sacrificed when tumors reached 2 cm in diameter or ulceration or major compromise in quality of life. A parallel experiment was performed to allow for tumor harvesting after two injections ip of BTZ for RNA-seq analysis, as detailed below. For BTZ and STING agonist combination studies, C57BL/KaLwRijHsd (n=5/group) and SCID/NOD (n=6/group) mice bearing 5TGM1 WT and C57BL/KaLwRijHsd mice (n=5/group) bearing 5TGM1 Sting^KO tumors were randomized to receive: PBS, BTZ (0.375 mg/kg twice a week for 2 weeks, i.p.), ADU-S100 (100 μg) administered in the peritumoral area (day 1 and 2), or a combination. Tumor sizes were measured as described above. A parallel experiment in C57BL/KaLwRijHsd mice was performed to allow for tumor harvesting after one administration of either BTZ or ADU-S100. Tumors were fixed in 10% formalin for 24 h, and then maintained in 70% ethanol prior to paraffin embedding and processing for IHC to detect CD3 (#nb600 Ab, Novus Bio).
# CALR = assay: Mass spectrometry after CALR immunoprecipitation; type: cell-based, human; settings: AMO1 WT vs GABARAP^KO, with or without BTZ
# Source text: To test this hypothesis, the CALR network was explored at the protein level by performing mass spectrometry (MS) after CALR immunoprecipitation (IP) in WT or GABARAP^KO AMO1 cells in the presence or absence of BTZ. […] CALR trap in the mitochondria has been recently reported in tumors with high stanniocalcin 1 (STC1), a newly recognized phagocytosis checkpoint driving tumor immune resistance (Lin et al. (2021) Cancer Cell. April 12; 39(4):480-493.e6. doi: 10.1016/j.ccell.2020.12.023. Epub 2021 Jan. 28. PMID: 33513345; PMCID: PMC8044011). […] A WB analysis of FLAG-immunoprecipitated proteins in […] cells expressing FLAG-tagged GABARAP was performed to analyze GABARAP interacting partners. […] These findings identify a molecular mechanism whereby GABARAP prevents STC1 binding to CALR; conversely, in low-GABARAP cells STC1 binding to CALR induces trapping of CALR in the mitochondria (FIG. 34).
compound,measurement,setting,value
"CC(C)C[C@H](NC(=O)[C@H](Cc1ccccc1)NC(=O)c1cnccn1)B(O)O [BTZ, bortezomib]",CALR exposure on cell surface,"5TGM1 MM cells; 5TGM1 Sting^KO, BTZ 7.5 nM",did not alter CALR exposure process
same,CALR exposure on cell surface,"5TGM1 MM cells; 5TGM1 WT, BTZ 1-10 nM",can induce hallmarks of ICD in human and murine MM cell lines; also recorded: dose-dependent increase of CTLR exposure
same,"PERK pathway activation (p-eIF2-alpha, CHOP, ATF4)",[1],activated the UPR transducer PERK pathway
same,CD3+ T cell infiltration within tumors (IHC),5TGM1 tumors,increased CD3+ T cell infiltration within tumors
same,binding of CALR to mitochondrial proteins,CALR,increases the binding of CALR to mitochondrial proteins in AMO1 GABARAP^KO cells and not WT cells; also recorded: increase of the binding of CALR to mitochondrial proteins only in AMO1 GABARAP^KO cells; also recorded: CALR localizes to the mitochondria after treatment with BTZ in GABARAP KO cells
